Key:
human Notch 1 = assay: Notch-CBF1 Transactivation Assay (Notch 1); type: cell-based; conditions: read-out: Notch 1 IC50; Notch-CBF1 transactivation luciferase assay in transfected HeLa cells; some values are an average of N experiments
Summary of the method: (§1)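 HeLa cells transiently co-transfected with a truncated Notch receptor plus a 4×CBF1-site luciferase reporter were exposed to compounds (5 μM to 8.4×10^−5 μM, 3-fold dilutions) for 18 hours at 37° C. Luciferase was read after Steady-Glo. Inhibition was normalized between DMSO (total) and 0.5 μM in-house inhibitor (background) wells.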

human Notch 3 = assay: Notch-CBF1 Transactivation Assay (Notch 3); type: cell-based; conditions: read-out: Notch 3 IC50; Notch-CBF1 transactivation luciferase assay in transfected HeLa cells; some values are an average of N experiments
Summary of the method: as §1

[1] = tested on: human PAT70 pancreatic carcinoma cell line; assay: Human Tumor Xenograft Models in Mice: PAT70; type: in vivo; conditions: PO, QDx15 (10 day on-2 day off-5 day on); FIG. 16; result in words
Experimental: (§2) Dosed orally; PO, QDx15 (10 day on-2 day off-5 day on). Each symbol represents the median tumor burden of a group of 8 mice.
(§3) Human Tumor Xenograft Models in Mice
(§4) Mice were fed food and water ad libitum.
(§5) Preclinical Chemotherapy Trials
(§6) Tumor growth inhibition is calculated as follows: […]
(§7) In Vivo Antitumor Activity

[2] = human metabolic stability half-life assay; conditions: microsomes, human liver microsomes
Experimental: Metabolic Stability Half-Life Panel
Incubation with Liver Microsomes

[3] = tested on: Human T-cell acute lymphoblastic leukemia cell line TALL-1; assay: Human Tumor Xenograft Models in Mice: TALL-1; type: in vivo; conditions: for Antitumor Activity in TALL-1 (LCK), QD dosing / Antitumor Activity in TALL-1 (LCK), BID dosing: Log Cell Kill, oral administration, schedule QDx10, dose unit not given; for Antitumor Activity in TALL-1 (LCK), QD dosing: dose 20 (Ex 1, 52), 12 (Ex 10), 40 (Ex 40); for antitumor activity in the Human Tumor Xenograft Models in mice: oral administration (PO) either BID and/or QD, Table 24 (TALL-1); for Antitumor Activity in TALL-1 (LCK), BID dosing: dose 20 (Ex 35, 37)
[4] = tested on: human triple negative breast carcinoma cell line MDA-MB-157; assay: Human Tumor Xenograft Models in Mice: MDA-MB-157; type: in vivo; conditions: PO, QDx15 (10 day on-2 day off-5 day on); FIG. 14; result in words
Experimental: as §2, §3, §4, §5, §6, §7

[5] = tested on: human triple negative breast carcinoma cell line MDA-MB-468; assay: Human Tumor Xenograft Models in Mice: MDA-MB-468; type: in vivo; conditions: PO, QDx15 (10 day on-2 day off-5 day on); FIG. 15; result in words
Experimental: as §2, §3, §4, §5, §6, §7

[6] = pH 7.4, CYP-mediated metabolic stability half life, NADPH-dependent
[7] = pH 7.4, HLM (t1/2, min), CYP-mediated (NADPH-dependent), 0.5 μM compound, 45 min time course, some values are an average of N experiments

Row | SMILES | IC50 (human Notch 1) | IC50 (human Notch 3) | in vivo antitumor activity, PAT70 xenograft [1] | half-life at 0.5 µM [2, 6] | half-life at 0.5 µM [2, 7] | Antitumor Activity in TALL-1 (LCK), QD dosing [3] | in vivo antitumor activity, TALL-1 xenograft ([3]; PO, QDx10, FIGS. 12-13, result in words) | antitumor activity in the Human Tumor Xenograft Models in mice ([3]; result in words) | in vivo antitumor activity, MDA-MB-157 xenograft [4] | in vivo antitumor activity, MDA-MB-468 xenograft [5] | Antitumor Activity in TALL-1 (LCK), BID dosing [3]
1 | NC(=O)[C@@H](CC1CC1)[C@@H](CCC(F)(F)F)C(=O)N[C@H]1N=C(c2ccccc2)c2cccc(F)c2NC1=O [Example 1, (2R,3S)-3-(Cyclopropylmethyl)-N-((3S)-9-fluoro-2-oxo-5-phenyl-2,3-dihydro-1H-1,4-benzodiazepin-3-yl)-2-(3,3,3-trifluoropropyl)succinamide] | 4.2 nM | 6.2 nM | exhibited antitumor activity | ≥ 30 min | 85 min | 4.5 | exhibited antitumor activity | showed antitumor activity | exhibited antitumor activity | exhibited antitumor activity | –
2 | Cc1cccc2c1NC(=O)[C@@H](NC(=O)[C@H](CCC(F)(F)F)[C@H](CC1CC1)C(N)=O)N=C2c1cccc(F)c1 [Example 10, (2R,3S)-3-(Cyclopropylmethyl)-N-((3S)-5-(3-fluorophenyl)-9-methyl-2-oxo-2,3-dihydro-1H-1,4-benzodiazepin-3-yl)-2-(3,3,3-trifluoropropyl)succinamide] | 4 nM | 9.7 nM | – | ≥ 30 min | 72 min | >2.8 | – | showed antitumor activity | – | – | –
3 | CCC[C@H](C(N)=O)[C@@H](CCC(F)(F)F)C(=O)N[C@H]1N=C(c2ccccc2)c2cccc(C(F)(F)F)c2NC1=O [Example 35, (2R,3S)—N-((3S)-2-Oxo-5-phenyl-9-(trifluoromethyl)-2,3-dihydro-1H-1,4-benzodiazepin-3-yl)-3-propyl-2-(3,3,3-trifluoropropyl)succinamide] | 16.1 nM | 12.9 nM | – | ≥ 30 min | 36 min | – | – | showed antitumor activity | – | – | 3.1
4 | NC(=O)[C@@H](CC1CC1)[C@@H](CCC(F)(F)F)C(=O)N[C@H]1N=C(c2ccccc2)c2cccc(C(F)(F)F)c2NC1=O [Example 36, (2R,3S)-3-(Cyclopropylmethyl)-N-((3S)-2-oxo-5-phenyl-9-(trifluoromethyl)-2,3-dihydro-1H-1,4-benzodiazepin-3-yl)-2-(3,3,3-trifluoropropyl)succinamide] | 7.9 nM | 8.3 nM | – | ≥ 30 min | > 120 min | – | – | – | – | – | –
5 | CCC[C@H](C(N)=O)[C@@H](CCC(F)(F)F)C(=O)N[C@H]1N=C(c2ccccc2)c2cccc(F)c2NC1=O [Example 37, (2R,3S)—N-((3S)-9-Fluoro-2-oxo-5-phenyl-2,3-dihydro-1H-1,4-benzodiazepin-3-yl)-3-propyl-2-(3,3,3-trifluoropropyl)succinamide] | 4.4 nM | 11.3 nM | – | ≥ 30 min | 43 min | – | – | showed antitumor activity | – | – | 2.0
6 | COc1cccc2c1NC(=O)[C@@H](NC(=O)[C@H](CCC(F)(F)F)[C@H](CC1CC1)C(N)=O)N=C2c1ccccc1 [Example 38, (2R,3S)-3-(Cyclopropylmethyl)-N-((3S)-9-methoxy-2-oxo-5-phenyl-2,3-dihydro-1H-1,4-benzodiazepin-3-yl)-2-(3,3,3-trifluoropropyl)succinamide] | 2.3 nM | 3.3 nM | – | ≥ 30 min | 70 min | – | – | – | – | – | –
7 | CCC[C@H](C(N)=O)[C@@H](CCC(F)(F)F)C(=O)N[C@H]1N=C(c2ccccc2)c2ccc(Br)c(OC)c2NC1=O [Example 39, (2R,3S)—N-((3S)-8-Bromo-9-methoxy-2-oxo-5-phenyl-2,3-dihydro-1H-1,4-benzodiazepin-3-yl)-3-propyl-2-(3,3,3-trifluoropropyl)succinamide] | 13.4 nM | 12 nM | – | ≥ 30 min | 38 min | – | – | – | – | – | –
8 | CCC[C@H](C(N)=O)[C@@H](CCC(F)(F)F)C(=O)N[C@H]1N=C(c2ccccc2)c2cccc(OC)c2NC1=O [Example 40, (2R,3S)—N-((3S)-9-Methoxy-2-oxo-5-phenyl-2,3-dihydro-1H-1,4-benzodiazepin-3-yl)-3-propyl-2-(3,3,3-trifluoropropyl)succinamide] | 6.8 nM | 6.9 nM | – | ≥ 30 min | 34 min | 1.4 | – | showed antitumor activity | – | – | –
9 | CCC[C@H](C(N)=O)[C@@H](CCC(F)(F)F)C(=O)N[C@H]1N=C(c2ccccc2)c2cccc(O)c2NC1=O [Example 41, (2R,3S)—N-((3S)-9-Hydroxy-2-oxo-5-phenyl-2,3-dihydro-1H-1,4-benzodiazepin-3-yl)-3-propyl-2-(3,3,3-trifluoropropyl)succinamide] | 9.1 nM | 12.4 nM | – | ≥ 30 min | 45 min | – | – | – | – | – | –
10 | NC(=O)[C@@H](CC1CC1)[C@@H](CCC(F)(F)F)C(=O)N[C@H]1N=C(c2ccccc2)c2cccc(Cl)c2NC1=O [Example 42, (2R,3S)—N-((3S)-9-Chloro-2-oxo-5-phenyl-2,3-dihydro-1H-1,4-benzodiazepin-3-yl)-3-(cyclopropylmethyl)-2-(3,3,3-trifluoropropyl)succinamide] | 1.9 nM | 3.5 nM | – | ≥ 30 min | 87 min | – | – | – | – | – | –
11 | CCC[C@H](C(N)=O)[C@@H](CCC(F)(F)F)C(=O)N[C@H]1N=C(c2ccccc2)c2cccc(Cl)c2NC1=O [Example 43, (2R,3S)—N-((3S)-9-Chloro-2-oxo-5-phenyl-2,3-dihydro-1H-1,4-benzodiazepin-3-yl)-3-propyl-2-(3,3,3-trifluoropropyl)succinamide] | 3.3 nM | 4.8 nM | – | ≥ 30 min | 30 min | – | – | – | – | – | –
12 | CC(C)[C@H](N)C(=O)OCN1C(=O)[C@@H](NC(=O)[C@H](CCC(F)(F)F)[C@H](CC2CC2)C(N)=O)N=C(c2ccccc2)c2cccc(F)c21 [Example 52, ((3S)-3-(((2R)-2-((1S)-2-Amino-1-(cyclopropylmethyl)-2-oxoethyl)-5,5,5-trifluoropentanoyl)amino)-9-fluoro-2-oxo-5-phenyl-2,3-dihydro-1H-1,4-benzodiazepin-1-yl)methyl L-valinate] | – | – | – | – | – | 5.7 | – | showed antitumor activity | – | – | –
